Experimental data as given in publication PMC6032158, “Structure–Activity Relationship of Piplartine and Synthetic Analogues against Schistosoma mansoni and Cytotoxicity to Mammalian Cells” (International Journal of Molecular Sciences, 2018).
Entries after “also recorded” stand apart in the source; their conditions may differ.

Legend:
[1] = system: murine fibroblast (NIH-3T3) cells; assay: MTT cytotoxicity assay in murine fibroblasts; format: cell-based; set-up: Emax: dose or concentration left out as unconfirmed
Summary of the method: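 NIH-3T3 cells exposed 24 h to samples at 25–800 µg/mL in 3% DMSO, with 3% DMSO as control. MTT (5 mg/mL stock) added for 2 h, formazan dissolved in DMSO, absorbance read at 595 nm.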

J774A.1 cells = assay: Cell death mechanism, annexin-V FITC / propidium iodide staining by flow cytometry; format: cell-based, mouse; details: J774A.1, 24 h; piplartine 25 μg/mL, 14B 400 μg/mL
Experimental: Cells were then treated with 2 µL of annexin-V FITC (Apoptosis Detection Kit; BD Biosciences, Franklin Lakes, NJ, USA) and 2 µL of propidium iodide (PI, 50 µg/mL) for 15 min in the dark at room temperature. Next, 100 µL binding buffer was added and samples were analysed by flow cytometry (BD LSFortessa^TM, Franklin Lakes, NJ, USA). A total of 20,000 events were collected per sample.

[2] = system: S. mansoni schistosomula and adult worms; set-up: method as in PMID 20832410, PMID 22796749; details: cited from earlier work
[3] = system: 49-day-old S. mansoni adult worms; assay: In vitro experiments with adult worms of S. mansoni (mortality, motor activity); format: cell-based, Schistosoma mansoni; details: for Dead Worms (%) F / Motor Activity Reduction (%) Significant F / Motor Activity Reduction (%) Slight F: female worms; for Dead Worms (%) M / Motor Activity Reduction (%) Significant M / Motor Activity Reduction (%) Slight M: male worms
Summary of the method: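 BH-strain worm pairs recovered from hamsters 49 days post-infection, washed in RPMI 1640 with penicillin, streptomycin and amphotericin B, and cultured as mated pairs with or without drug for 96 h. Motor activity changes and death were scored by microscopy.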

[4] = system: mouse BALB/cN macrophage (J774A.1) cell line; assay: Cell viability by flow cytometry in macrophages; details: 24 h, 25, 100 and 400 µg/mL, vs DMEM control

## COc1cc(/C=C/C(=O)N2CCC=CC2=O)cc(OC)c1OC [Piplartine, 3,4,5-trimethoxycinnamoyl-N-dihydropyridin-2-one]
[1]; MTT, 24 h exposure, 25 to 800 µg/mL
  effect on NIH-3T3 cell viability (in words): decreased cell viability after 24 h of exposure, exhibiting considerable toxicity; also recorded: showed toxicity at all concentrations tested
[1]; Mus musculus, NIH3T3, 24 h
  Emax: 96.94 ± 0.12%
J774A.1 cells
  annexin-V FITC staining (apoptosis marker) vs DMEM negative control (in words): significant (p < 0.05) increase in annexin-V FITC staining
[2]
  concentration with in vitro schistosomicidal activity: 10 µM
[3]; 5 µM, 24 h
  Dead Worms (%) F: 0%
  Motor Activity Reduction (%) Significant F: 0%
  Motor Activity Reduction (%) Slight F: 100%
  Dead Worms (%) M: 0%
  Motor Activity Reduction (%) Significant M: 0%
  Motor Activity Reduction (%) Slight M: 100%
[3]; 5 µM, 48 h
  Dead Worms (%) F: 0%
  Motor Activity Reduction (%) Significant F: 0%
  Motor Activity Reduction (%) Slight F: 100%
  Dead Worms (%) M: 0%
  Motor Activity Reduction (%) Significant M: 0%
  Motor Activity Reduction (%) Slight M: 100%
[3]; 5 µM, 72 h
  Dead Worms (%) F: 0%
  Motor Activity Reduction (%) Significant F: 0%
  Motor Activity Reduction (%) Slight F: 100%
  Dead Worms (%) M: 0%
  Motor Activity Reduction (%) Significant M: 0%
  Motor Activity Reduction (%) Slight M: 100%
[3]; 5 µM, 96 h
  Dead Worms (%) F: 60%
  Motor Activity Reduction (%) Significant F: 60%
  Motor Activity Reduction (%) Slight F: 0%
  Dead Worms (%) M: 60%
  Motor Activity Reduction (%) Significant M: 60%
  Motor Activity Reduction (%) Slight M: 0%
[3]; 10 µM, 24 h
  Dead Worms (%) F: 100%
  Motor Activity Reduction (%) Significant F: 100%
  Motor Activity Reduction (%) Slight F: 0%
  Dead Worms (%) M: 100%
  Motor Activity Reduction (%) Significant M: 100%
  Motor Activity Reduction (%) Slight M: 0%
[3]; 10 µM, 48 h
  Dead Worms (%) F: 100%
  Motor Activity Reduction (%) Significant F: 100%
  Motor Activity Reduction (%) Slight F: 0%
  Dead Worms (%) M: 100%
  Motor Activity Reduction (%) Significant M: 100%
  Motor Activity Reduction (%) Slight M: 0%
[3]; 10 µM, 72 h
  Dead Worms (%) F: 100%
  Motor Activity Reduction (%) Significant F: 100%
  Motor Activity Reduction (%) Slight F: 0%
  Dead Worms (%) M: 100%
  Motor Activity Reduction (%) Significant M: 100%
  Motor Activity Reduction (%) Slight M: 0%
[3]; 10 µM, 96 h
  Dead Worms (%) F: 100%
  Motor Activity Reduction (%) Significant F: 100%
  Motor Activity Reduction (%) Slight F: 0%
  Dead Worms (%) M: 100%
  Motor Activity Reduction (%) Significant M: 100%
  Motor Activity Reduction (%) Slight M: 0%
[3]; adult worms
  concentrations active against S. mansoni: 5 to 10 µM
[3]; analogues 50, 25, 10 and 5 μM, piplartine 5 and 10 μM, up to 96 h
  activity against S. mansoni adult worms (in words): showed activity against the parasite 24 h after incubation
[4]
  effect on J774A.1 cell viability (in words): significantly (p < 0.05) affected cell viability at concentrations of 25 and 100 µg/mL
[4]; listed as piplartine
  effect on J774A.1 cell viability (in words): more toxic to mammalian cells than the analogues
